In patent US10065954B2, “Substituted imidazo[4,5-c]pyridines as SSAO inhibitors” (Proximagen Limited, priority 2014, dated 2018):

How the values were obtained:
[1] = molecular target: T1, purified recombinantly expressed human SSAO (Homo sapiens, UniProt Q16853); test: SSAO enzyme inhibition assay (benzylamine substrate; hydrogen peroxide/HRP-coupled or 14C-aldehyde detection); format: biochemical; conditions: SSAO inhibitory activity; recombinant human SSAO, RT
T1 construct: made in house
T1 sequence (Q16853 1-763): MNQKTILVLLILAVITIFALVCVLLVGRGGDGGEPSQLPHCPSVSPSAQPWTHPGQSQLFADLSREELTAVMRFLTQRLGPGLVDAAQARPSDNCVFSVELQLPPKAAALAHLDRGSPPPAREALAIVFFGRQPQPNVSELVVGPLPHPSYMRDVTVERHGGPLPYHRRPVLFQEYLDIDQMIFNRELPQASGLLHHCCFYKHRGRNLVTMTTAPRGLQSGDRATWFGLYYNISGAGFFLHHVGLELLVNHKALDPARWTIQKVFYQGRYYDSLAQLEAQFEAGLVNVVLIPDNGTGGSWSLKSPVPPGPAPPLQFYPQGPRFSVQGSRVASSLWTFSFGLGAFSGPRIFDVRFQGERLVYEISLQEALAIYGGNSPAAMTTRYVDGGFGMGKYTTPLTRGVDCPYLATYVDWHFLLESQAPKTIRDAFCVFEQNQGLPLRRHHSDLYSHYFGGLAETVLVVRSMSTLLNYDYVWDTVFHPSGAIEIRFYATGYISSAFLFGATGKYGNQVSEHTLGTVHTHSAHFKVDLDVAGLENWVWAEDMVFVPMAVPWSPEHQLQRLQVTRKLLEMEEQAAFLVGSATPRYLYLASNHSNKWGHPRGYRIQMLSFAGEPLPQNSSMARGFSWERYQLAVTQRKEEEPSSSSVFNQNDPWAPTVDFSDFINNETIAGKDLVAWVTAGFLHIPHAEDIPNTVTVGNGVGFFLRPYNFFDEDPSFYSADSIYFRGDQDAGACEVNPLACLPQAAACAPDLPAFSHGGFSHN
Experimental: All primary assays were performed at RT. with purified recombinantly expressed human SSAO. Enzyme was prepared essentially as described in Öhman et al. (Protein Expression and Purification 46 (2006) 321-331). In addition, secondary- and selectivity assays were performed using SSAO prepared from various tissues or purified rat recombinant SSAO. The enzyme activity was assayed with benzylamine as substrate by measuring either benzaldehyde production, using ^14C-labeled substrate, or by utilizing the production of hydrogen peroxide in a horseradish peroxidase (HRP) coupled reaction. Briefly, test compounds were dissolved in dimethyl sulfoxide (DMSO) to a concentration of 10 mM. Dose-response measurements were assayed by either creating 1:10 serial dilutions in DMSO to produce a 7 point curve or by making 1:3 serial dilutions in DMSO to produce 11 point curves. The top concentrations were adjusted depending on the potency of the compounds and subsequent dilution in reaction buffer yielded a final DMSO concentration ≤2%.
In a horseradish peroxidase (HRP) coupled reaction, hydrogen peroxide oxidation of 10-acetyl-3,7-dihydroxyphenoxazine produced resorufin, which is a highly fluorescent compound (Zhout and Panchuk-Voloshina. Analytical Biochemistry 253 (1997) 169-174; Amplex® Red Hydrogen Peroxide/peroxidase Assay kit, Invitrogen A22188). Enzyme and compounds in 50 mM sodium phosphate, pH 7.4 were set to pre-incubate in flat-bottomed microtiter plates for approximately 15 min before initiating the reaction by addition of a mixture of HRP, benzylamine and Amplex reagent. Benzylamine concentration was fixed at a concentration corresponding to the Michaelis constant, determined using standard procedures. Fluorescence intensity was then measured at several time points during 1-2 h, exciting at 544 nm and reading the emission at 590 nm. For the human SSAO assay final concentrations of the reagents in the assay wells were: SSAO enzyme 1 ug/mL, benzylamine 100 uM, Amplex reagent 20 uM, HRP 0.1 U/mL and varying concentrations of test compound. The inhibition was measured as % decrease of the signal compared to a control without inhibitor (only diluted DMSO). The background signal from a sample containing no SSAO enzyme was subtracted from all data points. Data was fitted to a four parameter logistic model and IC50 values were calculated using the GraphPad Prism 4 or XLfit 4 programs.
SSAO activity was assayed using […] benzylamine and analysed by measuring radioactive benzaldehyde. In a white 96-well optiplate (Packard), 20 uL of diluted test compound was pre-incubated at RT with 20 uL SSAO enzyme for approximately 15 min with continuous agitation. All dilutions were made with PBS. The reaction was initiated by adding 20 uL of the benzylamine substrate solution containing Benzylamine hydrochloride (CFA589, GE Healthcare). The plate was incubated for 1 h as above after which the reaction was stopped by acidification (10 uL 1M aq HCl). Then 90 uL Micro Scint-E solution (Perkin-Elmer) was added to each well and the plate was continuously mixed for 15 min. Phase separation occurred instantly and activity was read in a Topcount scintillation counter (Perkin-Elmer). In the final reaction well, the human recombinant SSAO concentration was 10 ug/mL. In order to optimize sensitivity, the substrate concentration was decreased as compared to the HRP coupled assay in order to get a higher fraction of radioactive product. In the human SSAO assay, benzylamine concentration was 40 uM (0.2uCi/mL). Data was analysed as above.

[2] = molecular target: T2, human ether a go-go related gene (hERG) K+ channel (Homo sapiens, UniProt Q12809); test: hERG assay, IonWorks patch clamp electrophysiology; format: cell-based; conditions: Chinese Hamster Lung cell line stably expressing hERG; max assay concentration 11 uM
T2 construct: Chinese Hamster Lung cell line stably expressing the full length hERG channel; expressed in transfected cells; host or cells: Chinese Hamster Lung cell line
Experimental: Compounds of the invention were tested for inhibition of the human ether a go-go related gene (hERG) K^+ channel using IonWorks patch clamp electrophysiology. 8 Point concentration-response curves were generated on two occasions using 3-fold serial dilutions from the maximum assay concentration (11 uM). Electrophysiological recordings were made from a Chinese Hamster Lung cell line stably expressing the full length hERG channel. Single cell ion currents were measured in the perforated patch clamp configuration (100 ug/mL amphoterocin) at RT using an IonWorks Quattro instrument. The internal solution contained 140 mM KCl, 1 mM MgCl2, 1 mM EGTA and 20 mM HEPES and was buffered to pH 7.3. The external solution contained 138 mM NaCl, 2.7 mM KCl, 0.9 mM CaCl2, 0.5 mM MgCl2, 8 mM Na2HPO4 and 1.5 mM KH2PO4, and was buffered to pH 7.3. Cells were clamped at a holding potential of […] for 30 s and then stepped to +40 mV for 1 s. This was followed by a hyperpolarising step of 1 s to […] to evoke the hERG tail current. This sequence was repeated 5 times at a frequency of 0.25 Hz. Currents were measured from the tail step at the 5th pulse, and referenced to the holding current. Compounds were incubated for 6-7 min prior to a second measurement of the hERG signal using an identical pulse train. A minimum of 17 cells were required for each pIC50 curve fit. A control compound (quinidine) was used (see Table 13 below).

T2 sequence (Q12809 whole entry): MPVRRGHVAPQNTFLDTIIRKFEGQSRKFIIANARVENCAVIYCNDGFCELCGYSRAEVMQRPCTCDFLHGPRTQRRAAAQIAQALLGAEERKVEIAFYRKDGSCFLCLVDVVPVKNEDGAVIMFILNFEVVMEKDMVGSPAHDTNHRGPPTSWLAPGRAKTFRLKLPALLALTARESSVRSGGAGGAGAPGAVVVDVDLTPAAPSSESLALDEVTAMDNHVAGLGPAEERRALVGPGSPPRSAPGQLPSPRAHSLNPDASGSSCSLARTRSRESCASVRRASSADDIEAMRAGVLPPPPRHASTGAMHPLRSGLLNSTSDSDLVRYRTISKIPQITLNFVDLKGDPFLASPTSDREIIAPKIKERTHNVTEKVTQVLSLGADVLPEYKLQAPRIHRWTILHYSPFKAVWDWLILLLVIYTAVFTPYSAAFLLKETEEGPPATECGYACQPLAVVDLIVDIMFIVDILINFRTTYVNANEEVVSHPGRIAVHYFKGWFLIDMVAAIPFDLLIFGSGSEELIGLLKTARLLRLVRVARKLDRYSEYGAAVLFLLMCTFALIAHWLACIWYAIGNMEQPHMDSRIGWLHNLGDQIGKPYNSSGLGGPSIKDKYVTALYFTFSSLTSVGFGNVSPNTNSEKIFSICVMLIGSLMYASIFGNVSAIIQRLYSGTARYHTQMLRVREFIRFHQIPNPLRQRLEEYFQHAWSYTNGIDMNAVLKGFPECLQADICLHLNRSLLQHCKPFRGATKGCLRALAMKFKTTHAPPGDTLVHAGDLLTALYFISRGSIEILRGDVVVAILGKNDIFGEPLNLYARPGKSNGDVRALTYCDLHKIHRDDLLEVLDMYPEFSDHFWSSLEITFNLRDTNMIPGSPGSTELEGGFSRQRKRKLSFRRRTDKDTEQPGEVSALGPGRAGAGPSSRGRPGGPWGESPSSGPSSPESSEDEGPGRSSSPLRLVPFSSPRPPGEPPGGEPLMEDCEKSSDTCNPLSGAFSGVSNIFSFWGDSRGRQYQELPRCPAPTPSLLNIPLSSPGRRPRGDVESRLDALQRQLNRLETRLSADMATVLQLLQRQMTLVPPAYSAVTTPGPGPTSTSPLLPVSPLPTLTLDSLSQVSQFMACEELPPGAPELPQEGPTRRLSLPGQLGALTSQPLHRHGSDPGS

IC50 [1]: < 0.05 µM
SMILES: Cc1ccc(-n2c(-c3ccc(NCCN4CCOCC4)nc3)nc3ccncc32)cc1 [Compound 21, 5-[3-(4-Methylphenyl)-3H-imidazo[4,5-c]pyridin-2-yl]-N-[2-(morpholin-4-yl)ethyl]pyridin-2-amine]
IC50 [2]: > 10 µM
